Holding throughout (assay type): cell-based, human
Common to all, as to settings: diclofenac 1 mM, 24 h

In test [1] the test system is CD14^+ monocytes. The test is described as follows: HDL+SAA1-induced cytokine secretion by ex vivo CD14+ monocytes (ELISA). The procedure:
Isolation of Peripheral Blood Monocytes. Peripheral blood monocytes were isolated using a two-step process. Peripheral blood was diluted with PBS at a 1:1 ratio, slowly overlaid onto 30 ml of Lymphoprep™ (catalog #07811, StemCell Technologies, Vancouver Canada) in a 50 ml conical tube, and centrifuged at 400×g for 25 min without braking. The peripheral blood mononuclear cell (PBMC) layer was carefully transferred to another 50 ml conical tube, washed with PBS, followed by two washes with FACS buffer (0.5 mM EDTA, 1% BSA, and 1% mouse serum in PBS). Monocytes subsets were identified and sorted by flow cytometry using the following antibodies: PE mouse anti-human CD45 clone HI30 (catalog #555483), BV421 mouse anti-human CD14 clone MφP9 (catalog #563743), and FITC mouse anti-human CD16 clone B73.1 (catalog #561308), and a FACS ARIA Fusion sorter equipped with 355, 407, 488, 532 and 640 nm LASER lines using FACS DIVA 8.0 software (all from BD Biosciences, San Jose, Calif.). The gating strategy identified a population of debris-free, single, live, ^SSCmoderate/high, CD45^+ cells from which CD14^+/CD16^− (classical), CD14^+/CD16^+ (intermediate), CD14^dim/CD16^+ (non-classical), and CD14^+ (classical and intermediate) cells were sorted and utilized for experiments, as indicated (Supplemental FIG. 4).
HDL+SAA1 Stimulation of Peripheral Blood Monocytes Subsets. […] As previously described, normal HDL was isolated from plasma obtained from healthy subjects by sequential KBr differential gradient ultracentrifugation at 330,000 g and extensive dialysis with 50 mM HEPES, 50 mM NaCL, 5 mM MgCl2 and 2 mM CaCl2, pH 7.0, at 4° C. Normal HDL was complexed with recombinant human serum amyloid A-1 at a 2:1 ratio by mixing and incubated at RT overnight to generate HDL+SAA1, which was filtered using a 100-kDa exclusion filter (Amicon Ultra Centrifuge Filters, Millipore, Darmstadt, Germany) to remove any uncomplexed SAA1. Normal HDL was also complexed with the amount of lipopolysaccharide (catalog # L4391, E. coli 0111:B4, y-irradiated, MilliporeSigma, St. Louis, Mo.) present in recombinant human SAA1. Additionally, classical CD14^+ monocytes were treated with the P2X7R antagonist, A438079, the IKK inhibitor, BAY-11-7082, the IKKβ (IKK-2) inhibitor, TPCA-1, or the selective COX-2 inhibitor, celexocib, all from MilliporeSigma(St. Louis, Mo.). Cells were also treated with the FPR2 antagonist, WRW4, or diclofenac from Tocris (Minneapolis, Minn.). The amount of IL-1β, IL-6, TNF-α and IL-10 secreted into cell culture supernatants was quantified using human DuoSet ELISA kits (R&D Systems) and data were acquired using a SpectraMax M2 spectrophotometer (Molecular Devices, San Jose, Calif.). Western blotting, as previously described^43, was performed using antibodies directed against COX-1 (catalog #160110) and COX-2 (catalog #160112), both from Cayman Chemical (Ann Arbor, Mich.). Equivalency of protein loading was established using an antibody directed against GAPDH (catalog #MAB5718) from R&D Systems (Minneapolis, Minn.). Western blots images were captured using an iBright FL1000 Western Blot Imaging System (ThermoFisher Scientific, Waltham, Mass.) and quantified using NIH ImageJ software (imagej.nih.gov). […]
(In an ELISA, binding on a coated surface is turned into a signal by an enzyme label.)

In test [2] the test system is CD14^+ monocytes. The test is described as follows: PGE2 and TXB2 secreted by CD14+ monocytes cultured with HDL+SAA1. The source says:
FIG. 4 illustrates that HDL enriched with serum amyloid A (HDL+SAA1) induces cytokine secretion from CD14+ monocytes via a P2X7R/NF-κB/COX-2-dependent pathway. a, Volcano plot showing differentially expressed mRNA transcripts from classical CD14+/CD16− monocytes from asthmatics (n=10) that were stimulated ex vivo with or without HDL enriched with recombinant human SAA1 (HDL+SAA1). Additional experiments utilized ex vivo cultures of CD14^+ monocytes isolated by flow cytometry from healthy subjects to characterize the HDL+SAA1-mediated P2X7R/NF-κB/COX-2-dependent pathway, except where indicated. b, PTGS2 mRNA levels were quantified by qRT-PCR in cells stimulated with normal HDL or HDL+SAA1 and presented as RQ (relative quantification). n=7 subjects, pairwise comparisons of all groups vs. media, repeated measures one-way ANOVA with Dunnett's multiple comparisons test. c, Western blot showing COX-1 and COX-2 protein in cells stimulated with normal HDL or HDL+SAA1. GAPDH is shown as a control for equivalency of protein loading. The Western blot shown is representative of 3 independent experiments using cells from different subjects. […]

The subject of test [3] is CD14^+ monocytes. Put plainly: HDL+SAA1-induced cytokine secretion by ex vivo CD14+ monocytes (ELISA). This is another data set of the same source.

Regarding `O=C(O)Cc1ccccc1Nc1c(Cl)cccc1Cl` [diclofenac, 2-[(2,6-dichlorophenyl)amino] benzeneacetic acid], in the test with CD14^+ monocytes [1], the “HDL+SAA1-mediated secretion of IL-6” value is listed as “significantly inhibited”, the “HDL+SAA1-mediated secretion of IL-10” value is “significantly inhibited” and the “HDL+SAA1-mediated secretion of TNF-α” value is “significantly inhibited”. Also, in the test on CD14^+ monocytes [2], the “HDL+SAA1-induced increase in prostaglandin E2” value is recorded as “suppressed” and the “HDL+SAA1-induced increase in thromboxane B2” value is recorded as “suppressed”. Further, in the test with CD14^+ monocytes [3], the “HDL+SAA1-mediated secretion of IL-13” value is “significantly inhibited”.

The values are drawn from patent publication US20230017266A1, “Cyclooxygenase-2 Inhibition for the Treatment of SAA-high Asthma” (THE USA, AS REPRESENTED BY THE SECRETARY, DEPT. OF HEALTH …, priority 2019, published 2023).
